From patent US8912227B1, “Bicyclic pyrrole derivatives useful as agonists of GPR120” (Janssen Pharmaceutica NV, priority 2014, dated 2014)

Assays:
Human GPR120 short form [1] = target: T1, Human GPR120 short form (Homo sapiens, UniProt Q5NUL3); assay: Human GPR120 calcium flux assay, Procedure Calcium A; type: cell-based; conditions: HEK-293 cells expressing human GPR120 short form, 2500 cells/well, FLIPR
T1 construct: expressed in transfected cells
T1 sequence (Q5NUL3 1-361): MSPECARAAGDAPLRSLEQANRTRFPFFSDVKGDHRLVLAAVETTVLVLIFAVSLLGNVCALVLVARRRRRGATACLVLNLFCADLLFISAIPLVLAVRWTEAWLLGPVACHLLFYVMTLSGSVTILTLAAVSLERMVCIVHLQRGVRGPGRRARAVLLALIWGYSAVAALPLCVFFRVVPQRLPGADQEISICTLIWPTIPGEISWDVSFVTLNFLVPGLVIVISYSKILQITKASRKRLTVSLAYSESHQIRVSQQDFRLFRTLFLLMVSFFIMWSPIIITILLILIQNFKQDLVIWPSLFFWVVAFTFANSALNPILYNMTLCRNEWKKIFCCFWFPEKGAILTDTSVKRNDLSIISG
From the text: (§1) This in vitro assay serves to assess test compound agonist activity against the short splice variant (SVS with Accession number NM_001195755.1 confirmed by sequencing data) of the GPR120 receptor. The Human Short splice variant #2 (NM_001195755.1) is missing an in-frame coding exon compared to variant 1 (the Human Long splice variant NM_181745.3), resulting in a shorter isoform (GPR120-S) lacking a 16 aa protein segment compared to isoform GPR120-L. The assay platform utilizes HEK-293 cells stably transfected to express the Human GPR120 short form. These cells are first loaded with the Ca^+2 sensitive dye, Fluo-4 NW. Upon stimulation, intracellular released Ca^+2 can bind to the dye and alter its fluorescence intensity. This increase in fluorescence signal, and thus the flux in intracellular [Ca^2+], is detected and quantitated by fluorescence imaging using a FLIPR reader. The effect of the agonist is measured as a function of concentration and used to calculate an EC50 based upon a response curve.
In this procedure 2500 cells/well were employed.
(§2) A Human GPR120 clone (Genbank accession number NM_001195755.1) was placed into the pcDNA3.1 mammalian expression vector carrying the neomycin resistance gene. A stable mammalian cell was generated by placing the above clone into a HEK293 background. Clonal cells responding to long chain fatty acids had expression levels of GPR120 confirmed by RT-qPCR. Human HEK-GPR120 cells were cultured in Dulbecco's Modified Eagle's Medium (DMEM)/F12 medium supplemented with 10% fetal bovine serum (FBS), 1% L-Glutamine and 1% penicillin/streptomycin and 0.5 mg/ml G-418. Cells were split 2 times a week to keep the cells in the log-phase growth.
(§3) In preparation for the assay, HEK cells stably transfected with Human GPR120 (2.5K cells per well in 25 uL growth medium) were seeded into 384-well plates and then incubated overnight (37° C., 5% CO2). The next day, the media was changed to 20 μl assay buffer and the cell starved for 1 h at 37° C. The dye loading solution (2× dye) was prepared using 10 ml assay buffer, 100 μl of 250 mM probenecid, 1 bottle of Component A, and 20 μl of dye in DMSO. Twenty μl of the 2× dye loading buffer was then added to each well. The plates were incubated at 37° C. for 30 min, then at room temperature for an additional 15 minutes, before performing the assay on FLIPR.
(§4) Test compounds were prepared in assay buffer (2 μl of test compound+198 μl assay buffer, final DMSO in assay plate is 0.2%) at the desired concentration, more particularly at 100 μM, 50 μM, 25 μM, 12.5 μM, 6.25 μM, 3.125 μM, 1.562 μM, 0.781 μM, 0.391 μM, 0.195 μM, 0.098 μM, 0.049 μM, 0.024 μM and 0.012 μM.
(§5) The assay was performed on a FLIPR plate reader using the following parameters. Baseline was read for 10 seconds at 1 sec intervals. The program was set to transfer 10 μL of ligand from compound plate to cell plate after baseline reading. Aspiration was executed at: 10 μl/sec speed, 4.6 μl height; Dispensing was executed at: 30 μl/sec speed, 45 μl height. After compound addition, each well was read for 300 sec, with measurements collected at 1 sec intervals.
(§6) The kinetic data from the FLIPR was based upon a 5 minute window for data collection. The fluorescence of each sample well was used for individual calculations of a normalized RFU value, which was defined as maximum response minus the minimum response. The normalized fluorescence reading (RFU) was calculated as follows: RFU=Fmax−Fmin
(§7) The data were fitted to a sigmoidal dose-response curve with a variable Hill slope (<2) using nonlinear regression with GraphPad Prism 5.0 to calculate the EC50 values. The Fitting Equation was: Y=Bottom+(Top−Bottom)/(1+10^((LogEC50−X)*HillSlope)), where X is the log of the concentration and Y is the response.

Human GPR120 short form [2] = target: T1, Human GPR120 short form; assay: Human GPR120 calcium flux assay, Procedure Calcium B; type: cell-based; conditions: HEK-293 cells expressing human GPR120 short form, 4200 cells/well, FLIPR
From the text: as §1
In this procedure 4200 cells/well were employed.
as §2, §3, §4, §5, §6, §7

Structure (SMILES)	EC50 (Human GPR120 short form [1])	EC50 (Human GPR120 short form [2])
CCc1ccc(-n2cccc2COc2ccc(CCC(=O)O)c(C)c2C)cc1 [Compound 2, 3-(4-{[1-(4-Ethylphenyl)-1H-pyrrol-2-yl]methoxy}-2,3-dimethylphenyl)propanoic acid]	> 20000 nM	
O=C(O)CCc1ccc(OCc2cccn2-c2ccc(Cl)cc2)c(F)c1F [Compound 4, 3-(4-{[1-(4-Chlorophenyl)-1H-pyrrol-2-yl]methoxy}-2,3-difluorophenyl)propanoic acid]	> 20000 nM	
Cc1c(CCCO)ccc(OCc2c(Cl)ccn2-c2ccc(Cl)cc2)c1C [Compound 7, 3-(4-{[3-Chloro-1-(4-chlorophenyl)-1H-pyrrol-2-yl]methoxy}-2,3-dimethylphenyl)propan-1-ol]	1730 nM	1170 nM
N#Cc1ccn(-c2ccc(Cl)cc2)c1COc1ccc(CCC(=O)O)c(F)c1F [Compound 9, 3-(4-{[1-(4-Chlorophenyl)-3-cyano-1H-pyrrol-2-yl]methoxy}-2,3-difluorophenyl)propanoic acid]	3710 nM	1360 nM
Cc1c(CCC(=O)O)ccc(OCc2c(C#N)ccn2-c2ccc(Cl)cc2)c1C [Compound 12, 3-(4-{[1-(4-Chlorophenyl)-3-cyano-1H-pyrrol-2-yl]methoxy}-2,3-dimethylphenyl)propanoic acid]	4260 nM	1140 nM
Cc1c(CCCO)ccc(OCc2c(Br)ccn2-c2ccc(Cl)cc2)c1C [Compound 13, 3-(4-{[3-Bromo-1-(4-chlorophenyl)-1H-pyrrol-2-yl]methoxy}-2,3-dimethylphenyl)propan-1-ol]	1560 nM	899 nM
Cc1c(CCC(=O)O)ccc(OCc2c(Br)ccn2-c2ccc(Cl)cc2)c1C [Compound 14, 3-(4-{[3-Bromo-1-(4-chlorophenyl)-1H-pyrrol-2-yl]methoxy}-2,3-dimethylphenyl)propanoic acid]	2890 nM	1400 nM
Cc1c(CCCO)ccc(OCc2c(C(F)(F)F)ccn2-c2ccc(Br)cc2)c1C [Compound 18, 3-(4-{[1-(4-Bromophenyl)-3-(trifluoromethyl)-1H-pyrrol-2-yl]methoxy}-2,3-dimethylphenyl)propan-1-ol]	1300 nM	611 nM
O=C(O)CCc1ccc(OCc2c(C(F)(F)F)ccn2-c2ccc(Br)cc2)c(F)c1F [Compound 20, 3-(4-{[1-(4-Bromophenyl)-3-(trifluoromethyl)-1H-pyrrol-2-yl]methoxy}-2,3-difluorophenyl)propanoic acid]	1270 nM	289 nM
O=C(O)CCc1cc(F)c(OCc2c(C(F)(F)F)ccn2-c2ccc(Br)cc2)c(F)c1 [Compound 22, 3-(4-{[1-(4-Bromophenyl)-3-(trifluoromethyl)-1H-pyrrol-2-yl]methoxy}-3,5-difluorophenyl)propanoic acid]	1520 nM	112 nM
Cc1c(CCC(=O)O)ccc(OCc2c(C(F)(F)F)ccn2-c2ccc(Br)cc2)c1C [Compound 23, 3-(4-{[1-(4-Bromophenyl)-3-(trifluoromethyl)-1H-pyrrol-2-yl]methoxy}-2,3-dimethylphenyl)propanoic acid]	1110 nM	199 nM
CCc1ccc(-n2ccc(C(F)(F)F)c2COc2ccc(CCCO)c(C)c2C)cc1 [Compound 40, 3-(4-[[1-(4-ethylphenyl)-3-(trifluoromethyl)-1H-pyrrol-2-yl]methoxy]-2,3-dimethylphenyl)propan-1-ol]	1920 nM	896 nM
CCc1ccc(-n2ccc(C(F)(F)F)c2COc2ccc(CCCO)c(F)c2F)cc1 [Compound 41, 3-(4-[[1-(4-ethylphenyl)-3-(trifluoromethyl)-1H-pyrrol-2-yl]methoxy]-2,3-difluorophenyl)propan-1-ol]	1260 nM	247 nM
O=C(O)CCc1cc(F)c(OCc2c(C(F)(F)C(F)(F)F)ccn2-c2ccc(Cl)cc2)c(F)c1 [Compound 63, 3-(4-((1-(4-chlorophenyl)-3-(perfluoroethyl)-1H-pyrrol-2-yl)methoxy)-3,5-difluorophenyl)propanoic acid]		1150 nM
O=C(O)CCc1ccc(OCc2c(C(F)(F)F)ccn2-c2cccc(F)c2)cc1Cl [Compound 79, 3-(2-Chloro-4-{[1-(3-fluorophenyl)-3-(trifluoromethyl)-1H-pyrrol-2-yl]methoxy}phenyl)propanoic acid]		998 nM
O=C(O)CCc1ccc(OCc2c(C(F)(F)F)ccn2-c2ccc(F)cc2)cc1Cl [Compound 80, 3-(2-Chloro-4-{[1-(4-fluorophenyl)-3-(trifluoromethyl)-1H-pyrrol-2-yl]methoxy}phenyl)propanoic acid]		923 nM
O=C(O)CCc1ccc(OCc2c(C(F)(F)F)ccn2-c2cccc(F)c2)cc1C(F)(F)F [Compound 81, 3-[4-{[1-(3-Fluorophenyl)-3-(trifluoromethyl)-1H-pyrrol-2-yl]methoxy}-2-(trifluoromethyl)phenyl]propanoic acid]		675 nM
O=C(O)CCc1ccc(OCc2c(C(F)(F)F)ccn2-c2ccc(F)cc2)cc1C(F)(F)F [Compound 82, 3-[4-{[1-(4-Fluorophenyl)-3-(trifluoromethyl)-1H-pyrrol-2-yl]methoxy}-2-(trifluoromethyl)phenyl]propanoic acid]		834 nM
Cc1c(CCC(=O)O)ccc(OCc2c(C(F)(F)F)ccn2-c2ccc(F)cc2)c1C [Compound 83, 3-(4-{[1-(4-Fluorophenyl)-3-(trifluoromethyl)-1H-pyrrol-2-yl]methoxy}-2,3-dimethylphenyl)propanoic acid]		346 nM
Cc1c(CCC(=O)O)ccc(OCc2c(C(F)(F)F)ccn2-c2cccc(F)c2)c1C [Compound 84, 3-(4-{[1-(3-Fluorophenyl)-3-(trifluoromethyl)-1H-pyrrol-2-yl]methoxy}-2,3-dimethylphenyl)propanoic acid]		489 nM
O=C(O)CCc1cc(F)c(OCc2c(C(F)(F)F)ccn2-c2cccc(F)c2)c(F)c1 [Compound 85, 3-(3,5-Difluoro-4-{[1-(3-fluorophenyl)-3-(trifluoromethyl)-1H-pyrrol-2-yl]methoxy}phenyl)propanoic acid]		448 nM
Cc1cc(CCC(=O)O)ccc1OCc1c(C(F)(F)F)ccn1-c1ccc(F)cc1 [Compound 86, 3-(4-{[1-(4-Fluorophenyl)-3-(trifluoromethyl)-1H-pyrrol-2-yl]methoxy}-3-methylphenyl)propanoic acid]		280 nM
O=C(O)CCc1cc(F)c(OCc2c(C(F)(F)F)ccn2-c2ccc(F)cc2)c(F)c1 [Compound 87, 3-(3,5-Difluoro-4-{[1-(4-fluorophenyl)-3-(trifluoromethyl)-1H-pyrrol-2-yl]methoxy}phenyl)propanoic acid]		134 nM
Cc1cc(CCC(=O)O)ccc1OCc1c(C(F)(F)F)ccn1-c1cccc(F)c1 [Compound 88, 3-(4-{[1-(3-Fluorophenyl)-3-(trifluoromethyl)-1H-pyrrol-2-yl]methoxy}-3-methylphenyl)propanoic acid]		404 nM
